Common to all, as to assay: cells
Set-up in all cases: species or system NCI-60 human tumour cell lines; NCI-60 one-dose screen at 10 uM, percent growth inhibition versus untreated control cells

The subject of test [1] is CCRF-CEM. The conditions noted are these: Homo sapiens, CCRF-CEM, growth inhibition, one dose.
In test [2] the test system is LOX IMVI. As to conditions: Homo sapiens, LOX IMVI, growth inhibition, one dose.
Test [3] relates to PC-3. As to conditions: Homo sapiens, PC-3, growth inhibition, one dose.
The subject of test [4] is IGROV1. As to conditions: Homo sapiens, IGROV-1, growth inhibition, one dose.
For test [5], the system named is HL-60(TB). The conditions noted are these: Homo sapiens, HL-60, growth inhibition, one dose.
Test [6] has as its system RPMI-8226. As to conditions: Homo sapiens, RPMI-8226, growth inhibition, one dose.
The test system of test [7] is MDA-MB-231/ATCC. As to conditions: Homo sapiens, MDA-MB-231, growth inhibition, one dose.
For test [8], the system named is SF-268. As to conditions: Homo sapiens, SF-268, growth inhibition, one dose.
The subject of test [9] is BT-549. The conditions noted are these: Homo sapiens, BT-549, growth inhibition, one dose.
Test [10] has as its system HOP-62. The conditions noted are these: Homo sapiens, HOP-62, growth inhibition, one dose.
The subject of test [11] is SK-MEL-28. The conditions noted are these: Homo sapiens, SK-MEL-28, growth inhibition, one dose.
The subject of test [12] is NCI-H226. The conditions noted are these: Homo sapiens, NCI-H226, growth inhibition, one dose.
In test [13] the test system is OVCAR-3. As to conditions: Homo sapiens, OVCAR-3, growth inhibition, one dose.
The subject of test [14] is HOP-92. The conditions noted are these: Homo sapiens, HOP-92, growth inhibition, one dose.
Test [15] has as its system NCI/ADR-RES. The conditions noted are these: Homo sapiens, NCI/ADR-RES, growth inhibition, one dose.
The test system of test [16] is UACC-257. As to conditions: Homo sapiens, UACC-257, growth inhibition, one dose.
Test [17] relates to 786-0. As to conditions: Homo sapiens, 786-0, growth inhibition, one dose.
[18] abbreviates: read-out: Growth% inhibition / 5d.
The mark [19] stands for this setting: read-out: Growth% inhibition / 5a.
Setting [20] is: read-out: Growth% inhibition / 5b.
The mark [21] stands for this setting: read-out: Growth% inhibition / 5h.

Like-named read-outs stand apart in the source and are kept apart here.

With `CN(C)c1ccc(C=NNC(=O)/C=C/C=C/c2ccc3c(c2)OCO3)cc1` (mixture of isomers) [5d, (2E,4E)-5-(Benzo[d][1,3]dioxol-5-yl)-N′-((E/Z)-4-(dimethylamino)-benzylidene)penta-2,4-dienehydrazide], the inhibition at 10 µM in test [1] (setting [18]) amounted to 20.5%; in test [2] (setting [18]), 11.1%; in test [3] (setting [18]), 15%; in test [4] (setting [18]), 10.1%.

Regarding `O=C(/C=C/C=C/c1ccc2c(c1)OCO2)NN=Cc1ccc(O)cc1` [5a, (2E,4E)-5-(Benzo[d][1,3]dioxol-5-yl)-N′-((E,Z)-4-hydroxybenzylidene)penta-2,4-dienehydrazide], the inhibition at 10 µM in test [5] (setting [19]) was found to be 44.1%; in test [6] (setting [19]), 16.9%; in test [7] (setting [19]) it was 17.2%; in [1] (setting [19]) it was 32.4%; in test [2] (setting [19]) it was 38.5%; in test [3] (setting [19]), 19.8%. The inhibition at 10 µM in [4] (setting [19]) came out at 24.7%; in test [8] (setting [19]), 17.1%; in test [9] (setting [19]) it was 21.5%.

With `O=C(/C=C/C=C/c1ccc2c(c1)OCO2)N/N=C/c1ccc(O)cc1O` [5b, (2E,4E)-5-(Benzo[d][1,3]dioxol-5-yl)-N′-((E)-2,4-dihydroxybenzylidene)penta-2,4-dienehydrazide], the inhibition at 10 µM in test [6] (setting [20]) amounted to 52.3%; in test [10] (setting [20]), 72.9%; in test [11] (setting [20]) it was 57.9%; in [7] (setting [20]), 65.6%; in test [12] (setting [20]) it was 62.4%; in test [1] (setting [20]), 81%. Also, the inhibition at 10 µM came to 90.3% in test [13] (setting [20]); 90.3% in [2] (setting [20]); 62% in [3] (setting [20]); 46.6% in test [14] (setting [20]); 94.8% in test [15] (setting [20]); 71.1% in test [4] (setting [20]). The inhibition at 10 µM in [8] (setting [20]) was 75.6%; in [16] (setting [20]) it was 71.5%; in test [9] (setting [20]), 72.7%; in test [17] (setting [20]), 71%.

With `C/C(=N\NC(=O)/C=C/C=C/c1ccc2c(c1)OCO2)c1ccc(Br)cc1` [5h, (2E,4E)-5-(Benzo[d][1,3]dioxol-5-yl)-N′-((E)-1-(4-bromophenyl)ethylidene)penta-2,4-dienehydrazide], the inhibition at 10 µM in test [5] (setting [21]) was 15.9%; in [6] (setting [21]) it was 19.4%; in test [10] (setting [21]) it was 33.2%; in [11] (setting [21]) it was 14.2%; in [7] (setting [21]), 21%; in test [12] (setting [21]) it was 24.1%. Also, the inhibition at 10 µM was determined as 44.3% in test [1] (setting [21]); 24.4% in test [13] (setting [21]); 38.3% in [2] (setting [21]); 30.9% in [3] (setting [21]); 11.5% in [14] (setting [21]); 33.9% in [15] (setting [21]). Moreover, the inhibition at 10 µM in test [4] (setting [21]) amounted to 29.7%; in test [8] (setting [21]) it was 32.5%; in [16] (setting [21]), 12%; in test [17] (setting [21]), 14.6%.

These data come from PMC9037111, “Structure-based design, synthesis, and biological evaluation of novel piperine–resveratrol hybrids as antiproliferative agents targeting SIRT-2” (RSC Advances, 2021).
